Source: ChEMBL document CHEMBL6109060, “Potent HIV‑1 protease inhibitors containing oxabicyclo octanol-derived P2-ligands: Design, synthesis, and X‑ray structural studies of inhibitor-HIV-1 protease complexes” (Bioorg Med Chem Lett, 2025)

Assays:
[1] = test system: Human immunodeficiency virus 1; assay: Antiviral activity against HIV-1 LAI infected in human MT2 cells reduction in virus-induced cytopathic effect measured after 7 days by MTT assay; assay type: functional, organism-based; conditions: Human immunodeficiency virus 1, LAI, MT2, 168 h
[2] = biological target: Human immunodeficiency virus type 1 protease (Human immunodeficiency virus 1, UniProt Q72874); assay: Inhibition of HIV-1 protease using Abz-Thr-Ile-Nle-Phe-(p-NO2)-Gln-Arg-NH2 as substrate preincubated for 5 to 10 mins followed by substrate addition and measured after 1 hr by spectrofluorometric assay

| Compound | EC50 [1] [nM] | Ki [2] [nM] |
| --- | --- | --- |
| COc1ccc(S(=O)(=O)N(CC(C)C)C[C@@H](O)[C@H](Cc2ccccc2)NC(=O)O[C@@H]2CC[C@@H]3C[C@H]4CO[C@@H](c5ccccc5)[C@@]42O3)cc1 | > 1000 | 1300 |
| COc1ccc(S(=O)(=O)N(CC(C)C)C[C@@H](O)[C@H](Cc2ccccc2)NC(=O)O[C@H]2CC[C@@H]3C[C@H]4CO[C@@H](c5ccccc5)[C@@]42O3)cc1 | > 1000 | 43 |
| COc1ccc(S(=O)(=O)N(CC(C)C)C[C@@H](O)[C@H](Cc2ccccc2)NC(=O)O[C@H]2CC[C@@H]3C[C@H]4CO[C@@H](C(C)C)[C@@]42O3)cc1 | – | 855 |
| COc1ccc(S(=O)(=O)N(CC(C)C)C[C@@H](O)[C@H](Cc2ccccc2)NC(=O)O[C@@H]2CC[C@@H]3C[C@H]4CO[C@@H](C(C)C)[C@@]42O3)cc1 | > 1000 | 620 |
| COc1ccc(S(=O)(=O)N(CC(C)C)C[C@@H](O)[C@H](Cc2ccccc2)NC(=O)O[C@H]2CC[C@H]3C[C@@H]4CO[C@H](c5ccccc5)[C@]42O3)cc1 | > 1000 | 424 |
| COc1ccc(S(=O)(=O)N(CC(C)C)C[C@@H](O)[C@H](Cc2ccccc2)NC(=O)O[C@@H]2CC[C@H]3C[C@@H]4CO[C@H](c5ccccc5)[C@]42O3)cc1 | > 1000 | 272 |
| COc1ccc(S(=O)(=O)N(CC(C)C)C[C@@H](O)[C@H](Cc2ccccc2)NC(=O)O[C@@H]2CC[C@@H]3C[C@H]4CO[C@@H](C)[C@@]42O3)cc1 | > 1000 | 20.6 |
| COc1ccc(S(=O)(=O)N(CC(C)C)C[C@@H](O)[C@H](Cc2ccccc2)NC(=O)O[C@H]2CC[C@@H]3C[C@H]4CO[C@@H](C)[C@@]42O3)cc1 | 240 | 1.65 |
